Patent US7435837B2, “Dihydrobenzofuranyl alkanamine derivatives and methods for using same” (Wyeth, priority 2003, dated 2008)
Structures can show the parent of a compound that is named as a salt.

| melting point | SMILES |
| --- | --- |
| 237 to 240 °C | NCC1Cc2cccc(-c3ccc(F)cc3)c2O1 (racemic) (as salt: hydrochloride) [Example 73, (±)-1-[7-(4-fluorophenyl)-2,3-dihydro-1-benzofuran-2-yl]methanamine] |
| 168 to 171 °C | COc1cccc2c1OC(CN)C2 (racemic) (as salt: hydrochloride) [Example 7, (±)-1-(7-methoxy-2,3-dihydro-1-benzofuran-2-yl)methanamine] |
| > 250 °C | NCC1Cc2cccc(-c3ccc(C(F)(F)F)cc3)c2O1 (racemic) (as salt: hydrochloride) [Example 82, (±)-1 {7-[4-(trifluoromethyl)phenyl]-2,3-dihydro-1-benzofuran-2-yl}methanamine] |
| 204 to 205 °C | NCC1Cc2cccc(-c3ccccc3C(F)(F)F)c2O1 (racemic) (as salt: hydrochloride) [Example 53, (±)-1-{7-[2-(trifluoromethyl)phenyl]-2,3-dihydro-1-benzofuran-2-yl}methanamine] |
| 166 to 168 °C | COc1ccc(-c2cccc3c2OC(CN)C3)c(OC)c1 (single isomer, unassigned; (-)) (as salt: hydrochloride) [Example 144, (−)-1-[7-(2,4-dimethoxyphenyl)-2,3-dihydro-1-benzofuran-2-yl]methanamine] |
| 206 to 209 °C | NCC1Cc2cc(F)cc(-c3ccccc3Cl)c2O1 (single isomer, unassigned; (-)) (as salt: hydrochloride) [Example 102, (−)-1-[7-(2-chlorophenyl)-5-fluoro-2,3-dihydro-1-benzofuran-2-yl]methanamine] |
| 209 to 211 °C | NCC1Cc2cccc(/C=C/c3ccccc3)c2O1 (racemic) (as salt: hydrochloride) [Example 119, (±)-1-{7-[(E)-2-phenylvinyl]-2,3-dihydro-1-benzofuran-2-yl}methanamine] |
| > 250 °C | Cc1cccc(C)c1-c1cccc2c1CC(CN)O2 (single isomer, unassigned; (+)) (as salt: hydrochloride) [Example 126, (+)-1-[4-(2,6-dimethylphenyl)-2,3-dihydro-1-benzofuran-2-yl]methanamine] |
| 176 to 178 °C | CC(C)c1cccc2c1OC(CN)C2 (single isomer, unassigned; (-)) (as salt: hydrochloride) [Example 19, (−)-(7-isopropyl-2,3-dihydro-1-benzofuran-2-yl)methylamine] |
| > 240 °C | NCC1Cc2c(F)c(F)cc(-c3ccccc3)c2O1 (racemic) (as salt: hydrochloride) [Example 109, (±)-(4,5-difluoro-7-phenyl-2,3-dihydro-1-benzofuran-2-yl)methylamine] |
| > 220 °C | COc1ccc2c(c1)OC(CN)C2 (racemic) (as salt: hydrochloride) [Example 30, (±)-1-(6-methoxy-2,3-dihydro-1-benzofuran-2-yl)methanamine] |
| 109 to 111 °C | NCC1Cc2cccc(-c3ccccc3C(F)(F)F)c2O1 (single isomer, unassigned; (-)) (as salt: hydrochloride) [Example 54, (−)-1-{7-[2-(trifluoromethyl)phenyl]-2,3-dihydro-1-benzofuran-2-yl}methanamine] |
| 184 to 186 °C | NCC1Cc2cccc(-c3cccc(C(F)(F)F)c3)c2O1 (single isomer, unassigned; (-)) (as salt: hydrochloride) [Example 135, (−)-1-{7-[3-(trifluoromethyl)phenyl]-2,3-dihydro-1-benzofuran-2-yl}methanamine] |
| 226 to 229 °C | NCC1Cc2cccc(-c3ccc(C(F)(F)F)cc3)c2O1 (single isomer, unassigned; (+)) (as salt: hydrochloride) [Example 137, (+)-1-{7-[4-(trifluoromethyl)phenyl]-2,3-dihydro-1-benzofuran-2-yl}methanamine] |
